In patent publication US20190381086A1, “INHIBITION OF NEDDYLATION USING GLYCYL-tRNA SYNTHETASE INHIBITORS” (The Scripps Research Institute, priority 2015, published 2019):

How the values were obtained:
SN12C [1] = assay: NCI 60 Cell One-Dose Screen; type: cell-based, human; details: Renal Cancer, single dose 10^-5 M
NCI-H460 [2] = assay: NCI 60 Cell One-Dose Screen; type: cell-based, human; details: NCI-H460, Non-Small Cell Lung Cancer; single dose 10^-5 M
SW-620 = assay: NCI 60 Cell One-Dose Screen; type: cell-based, human; details: SW-620, Colon Cancer; single dose 10^-5 M
NCI-H23 [3] = assay: NCI 60 Cell One-Dose Screen; type: cell-based, human; details: NCI-H23, Non-Small Cell Lung Cancer; single dose 10^-5 M
UO-31 = assay: NCI 60 Cell One-Dose Screen; type: cell-based, human; details: UO-31, Renal Cancer; single dose 10^-5 M
HCT-116 = assay: NCI 60 Cell One-Dose Screen; type: cell-based, human; details: HCT-116, Colon Cancer; single dose 10^-5 M
A549/ATCC [4] = assay: NCI 60 Cell One-Dose Screen; type: cell-based, human; details: Non-Small Cell Lung Cancer, single dose 10^-5 M
IGROV1 = assay: NCI 60 Cell One-Dose Screen; type: cell-based, human; details: IGROV1, Ovarian Cancer; single dose 10^-5 M
BT-549 [5] = assay: NCI 60 Cell One-Dose Screen; type: cell-based, human; details: BT-549, Breast Cancer; single dose 10^-5 M
EKVX = assay: NCI 60 Cell One-Dose Screen; type: cell-based, human; details: Non-Small Cell Lung Cancer, single dose 10^-5 M
SF-268 = type: cell-based; details: SF-268, CNS Cancer
SN12C [6] = type: cell-based; details: Renal Cancer
SR = type: cell-based; details: Leukemia
OVCAR-8 = type: cell-based; details: OVCAR-8, Ovarian Cancer
NCI/ADR-RES = type: cell-based; details: Ovarian Cancer
NCI-H23 [7] = type: cell-based; details: NCI-H23, Non-Small Cell Lung Cancer
MDA-MB-231/ATCC = type: cell-based; details: Breast Cancer
HT29 = type: cell-based; details: HT29, Colon Cancer
NCI-H460 [8] = type: cell-based; details: NCI-H460, Non-Small Cell Lung Cancer
RPMI-8226 = type: cell-based; details: RPMI-8226, Leukemia
CCRF-CEM = type: cell-based; details: Leukemia
PC-3 = type: cell-based; details: PC-3, Prostate Cancer
SK-OV-3 = type: cell-based; details: SK-OV-3, Ovarian Cancer
BT-549 [9] = type: cell-based; details: BT-549, Breast Cancer
U251 = type: cell-based; details: U251, CNS Cancer
A549/ATCC [10] = type: cell-based; details: Non-Small Cell Lung Cancer
SF-295 = type: cell-based; details: SF-295, CNS Cancer
UACC-62 = type: cell-based; details: UACC-62, Melanoma
A498 = type: cell-based; details: A498, Renal Cancer
RXF 393 = type: cell-based; details: RXF 393, Renal Cancer
MDA-MB-435 = type: cell-based; details: MDA-MB-435, Melanoma
[11] = Homo sapiens, read-out: LC50 (the source's name)

NCC(=O)NS(=O)(=O)OC[C@H]1O[C@@H](n2cnc3c(N)ncnc32)[C@H](O)[C@@H]1O [GlySA, glycylsulfamoyladenosine]
Growth inhibition count (%) (SN12C [1]): 1.03%
Growth inhibition count (%) (NCI-H460 [2]): 3.35%
Growth inhibition count (%) (SW-620): 3.712%
Growth inhibition count (%) (NCI-H23 [3]): 5.695%
Growth inhibition count (%) (UO-31): 6.084%
Growth inhibition count (%) (HCT-116): 6.566%
Growth inhibition count (%) (A549/ATCC [4]): 9.701%
Growth inhibition count (%) (IGROV1): 11.7%
Growth inhibition count (%) (BT-549 [5]): 21.06%
Growth inhibition count (%) (EKVX): 44.07%
GI50 (SF-268; Homo sapiens): 501 nM
LC50/GI50 (SF-268): >199.5
GI50 (SN12C [6]; Homo sapiens): 562 nM
CC50 (SN12C [6]; [11]): 95500 nM
LC50/GI50 (SN12C [6]): 169.8
GI50 (SR; Homo sapiens): 933 nM
CC50 (SR; [11]): > 100000 nM
LC50/GI50 (SR): >107.2
GI50 (OVCAR-8; Homo sapiens): 2460 nM
CC50 (OVCAR-8; [11]): > 100000 nM
LC50/GI50 (OVCAR-8): >40.7
GI50 (NCI/ADR-RES; Homo sapiens): 2510 nM
CC50 (NCI/ADR-RES; [11]): > 100000 nM
LC50/GI50 (NCI/ADR-RES): >39.8
GI50 (NCI-H23 [7]; Homo sapiens): 2570 nM
CC50 (NCI-H23 [7]; [11]): > 100000 nM
LC50/GI50 (NCI-H23 [7]): >38.9
LC50/GI50 (MDA-MB-231/ATCC): 34.7
GI50 (MDA-MB-231/ATCC; Homo sapiens): 525 nM
CC50 (MDA-MB-231/ATCC; [11]): 18200 nM
LC50/GI50 (HT29): >33.9
GI50 (HT29; Homo sapiens, HT-29): 2950 nM
CC50 (HT29; Homo sapiens, HT-29, read-out: LC50 (the source's name)): > 100000 nM
GI50 (NCI-H460 [8]; Homo sapiens): 3240 nM
CC50 (NCI-H460 [8]; [11]): > 100000 nM
LC50/GI50 (NCI-H460 [8]): >30.9
GI50 (RPMI-8226; Homo sapiens): 3310 nM
CC50 (RPMI-8226; [11]): > 100000 nM
LC50/GI50 (RPMI-8226): >30.2
GI50 (CCRF-CEM; Homo sapiens): 3720 nM
LC50/GI50 (CCRF-CEM): >26.9
GI50 (PC-3; Homo sapiens): 2630 nM
CC50 (PC-3; [11]): 56200 nM
LC50/GI50 (PC-3): 21.4
GI50 (SK-OV-3; Homo sapiens): 2880 nM
CC50 (SK-OV-3; [11]): 37200 nM
LC50/GI50 (SK-OV-3): 12.9
LC50/GI50 (BT-549 [9]): 10.7
GI50 (BT-549 [9]; Homo sapiens): 2340 nM
GI50 (U251; Homo sapiens, U-251): 550 nM
CC50 (U251; Homo sapiens, U-251, read-out: LC50 (the source's name)): 5750 nM
LC50/GI50 (U251): 10.5
GI50 (A549/ATCC [10]; Homo sapiens): 2340 nM
CC50 (A549/ATCC [10]; [11]): 19000 nM
LC50/GI50 (A549/ATCC [10]): 8.1
GI50 (SF-295; Homo sapiens): 871 nM
CC50 (SF-295; [11]): 6920 nM
LC50/GI50 (SF-295): 7.9
GI50 (UACC-62; Homo sapiens): 1860 nM
LC50/GI50 (UACC-62): 4.2
LC50/GI50 (A498): 4.1
GI50 (A498; Homo sapiens): 1580 nM
CC50 (A498; [11]): 6460 nM
GI50 (RXF 393; Homo sapiens): 2140 nM
CC50 (RXF 393; [11]): 8320 nM
LC50/GI50 (RXF 393): 3.9
GI50 (MDA-MB-435; Homo sapiens): 1820 nM
LC50/GI50 (MDA-MB-435): 3.6
GI50 (OVCAR-3; Homo sapiens, OVCAR-3): 2000 nM
CC50 (OVCAR-3; Homo sapiens, OVCAR-3, read-out: LC50 (μM)): 10 µM
LC50/GI50 (OVCAR-3; OVCAR-3, Ovarian Cancer): 5.0
